Data set [1] deals with A549. Briefly: Inhibition of growth of A549/ATCC nonsmall cell lung cancer cell line. The data set is classed as functional. Conditions: Homo sapiens.
The test system of data set [2] is CAKI-1. Briefly: Inhibition of growth of CAKI-1 renal cancer cell line. The data set is classed as functional. Conditions: Homo sapiens.
A short description of data set [3]: Inhibition of growth of IGROV1 ovarian cancer cell line. Conditions: Homo sapiens, IGROV-1. The data set is classed as functional.
The subject of data set [4] is NCI-H460. Briefly: Inhibition of growth of NCI-H460 nonsmall cell lung cancer cell line. The data set is classed as functional. Conditions: Homo sapiens.
Data set [5] has as its system CCRF-CEM. Briefly: Inhibition of growth of CCRF-CEM human leukemia cells (n=2). The data set is classed as functional, cell-based.
In data set [6] the test system is SW-620. Briefly: Inhibition of growth of SW -620 colon cancer cell line. Conditions: Homo sapiens. The data set is classed as functional.
For data set [7], the system named is MDA-MB-435. Briefly: Inhibition of growth of MDA-MB-435 breast cancer cell line. The data set is classed as functional. Conditions: Homo sapiens.
Data set [8] relates to K562. As to the kind of experiment: Inhibition of growth of K-562 leukemia cell line. The data set is classed as functional. Conditions: Homo sapiens.
The target of data set [9] is Dihydrofolate reductase (Escherichia coli, UniProt P0ABQ4). Briefly: Inhibition of Escherichia coli dihydrofolate reductase (DHFR).
Sequence of Dihydrofolate reductase (Escherichia coli, UniProt P0ABQ4) (P0ABQ4 whole entry): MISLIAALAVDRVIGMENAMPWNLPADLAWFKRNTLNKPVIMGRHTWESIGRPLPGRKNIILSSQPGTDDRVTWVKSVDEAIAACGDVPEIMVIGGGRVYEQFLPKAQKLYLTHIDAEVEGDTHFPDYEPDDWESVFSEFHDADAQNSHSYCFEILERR
Data set [10] deals with SF-295. Briefly: Inhibition of growth of SF-295 CNS cancer cell line. The data set is classed as functional. Conditions: Homo sapiens.
Data set [11] relates to UO-31. As to the kind of experiment: Inhibition of growth of UO-31 renal cancer cell line. Conditions: Homo sapiens. The data set is classed as functional.
Data set [12] concerns the target Thymidylate synthase (Escherichia coli, UniProt C3SWJ7). As to the kind of experiment: Inhibition of Escherichia coli thymidylate synthase (TS).
The test system of data set [13] is RPMI-8226. As to the kind of experiment: Inhibition of growth of RPMI-8226 leukemia cell line. Conditions: Homo sapiens. The data set is classed as functional.
Data set [14] concerns HL-60. As to the kind of experiment: Inhibition of growth of HL-60 leukemia cell line. The data set is classed as functional. Conditions: Homo sapiens.
Data set [15] has as its system MDA-N. Briefly: Inhibition of growth of MDA-Nbreast cancer cell line. The data set is classed as functional. Conditions: Homo sapiens.
The subject of data set [16] is NCI-H522. Briefly: Inhibition of growth of NCI- H522 nonsmall cell lung cancer cell line. Conditions: Homo sapiens. The data set is classed as functional.
Data set [17] deals with MCF7. As to the kind of experiment: Inhibition of growth of MCF-7 breast cancer cell line. The data set is classed as functional. Conditions: Homo sapiens.
In data set [18] the target is Bifunctional dihydrofolate reductase-thymidylate synthase (Toxoplasma gondii, UniProt Q07422). Briefly: Inhibition of Toxoplasma gondii dihydrofolate reductase (DHFR).
Sequence of Bifunctional dihydrofolate reductase-thymidylate synthase (Q07422 whole entry): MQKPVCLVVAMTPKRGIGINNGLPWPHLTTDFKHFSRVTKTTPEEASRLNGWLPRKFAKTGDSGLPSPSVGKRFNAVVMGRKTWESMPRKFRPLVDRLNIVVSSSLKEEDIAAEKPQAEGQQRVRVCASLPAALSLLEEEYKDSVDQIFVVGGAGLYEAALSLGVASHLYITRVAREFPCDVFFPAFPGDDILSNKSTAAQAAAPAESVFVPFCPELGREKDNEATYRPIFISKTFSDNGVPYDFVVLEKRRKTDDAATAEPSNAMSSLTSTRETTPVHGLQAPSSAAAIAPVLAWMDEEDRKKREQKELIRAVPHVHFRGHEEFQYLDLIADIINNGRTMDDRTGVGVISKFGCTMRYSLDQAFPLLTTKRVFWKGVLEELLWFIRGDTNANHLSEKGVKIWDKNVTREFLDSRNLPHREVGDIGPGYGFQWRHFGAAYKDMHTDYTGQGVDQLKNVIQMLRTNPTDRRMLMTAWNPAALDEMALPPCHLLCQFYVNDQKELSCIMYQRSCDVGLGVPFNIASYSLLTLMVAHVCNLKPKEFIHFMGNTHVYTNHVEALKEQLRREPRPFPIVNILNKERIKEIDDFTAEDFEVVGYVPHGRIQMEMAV
Data set [19] has as its system SK-MEL-5. Briefly: Inhibition of growth of SK-MEL5 melanoma cell line. The data set is classed as functional. Conditions: Homo sapiens.
Data set [20] deals with ACHN. As to the kind of experiment: Inhibition of growth of ACHN renal cancer cell line. The data set is classed as functional. Conditions: Homo sapiens.
Data set [21] concerns the target Thymidylate synthase (Homo sapiens, UniProt P04818). Briefly: Inhibition of recombinant human thymidylate synthase (TS).
Data set [22] in a line: Inhibition of growth of R30dm (n=2). The data set is classed as functional, Homo sapiens.
Data set [23] concerns LOX IMVI. Briefly: Inhibition of growth of LOX IMVI melanoma cell line. The data set is classed as functional. Conditions: Homo sapiens.
Data set [24] deals with HT-29. As to the kind of experiment: Inhibition of growth of HT 29colon cancer cell line. The data set is classed as functional. Conditions: Homo sapiens.
Data set [25] relates to U-251. Briefly: Inhibition of growth of U251 CNS cancer cell line. The data set is classed as functional. Conditions: Homo sapiens.
The subject of data set [26] is TK-10. As to the kind of experiment: Inhibition of growth of TK-10 renal cancer cell line. The data set is classed as functional. Conditions: Homo sapiens.
Data set [27] relates to SR. Briefly: Inhibition of growth of SR leukemia cell line. The data set is classed as functional. Conditions: Homo sapiens.
Data set [28] relates to R1. As to the kind of experiment: Inhibition of growth of R1(n=2). Conditions: Homo sapiens.
For data set [29], the system named is OVCAR-5. As to the kind of experiment: Inhibition of growth of OVCAR-5 ovarian cancer cell line. The data set is classed as functional. Conditions: Homo sapiens.
Data set [30] deals with SF-268. Briefly: Inhibition of growth of SF-268 CNS cancer cell line. The data set is classed as functional. Conditions: Homo sapiens.
Data set [31] concerns R2. Briefly: Inhibition of growth of R2(n=2). Conditions: Homo sapiens. The data set is classed as functional, cell-based.
Data set [32] deals with SF-539. Briefly: Inhibition of growth of SF-539 CNS cancer cell line. Conditions: Homo sapiens. The data set is classed as functional.
The test system of data set [33] is CCRF-CEM. As to the kind of experiment: Inhibition of growth of CCRF-CEM leukemia cell line. The data set is classed as functional. Conditions: Homo sapiens.
For data set [34], the target named is Dihydrofolate reductase (Homo sapiens, UniProt P00374).
Sequence of Dihydrofolate reductase (Homo sapiens, UniProt P00374) (P00374 whole entry): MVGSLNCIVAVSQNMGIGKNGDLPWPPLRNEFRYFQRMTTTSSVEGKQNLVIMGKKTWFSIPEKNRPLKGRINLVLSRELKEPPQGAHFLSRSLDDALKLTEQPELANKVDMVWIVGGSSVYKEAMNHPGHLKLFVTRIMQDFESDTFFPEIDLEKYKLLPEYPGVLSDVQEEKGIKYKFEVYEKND
In data set [35] the test system is HCT-15. Briefly: Inhibition of growth of HCT -15 colon cancer cell line. The data set is classed as functional. Conditions: Homo sapiens.
The test system of data set [36] is R2. Briefly: Inhibition of growth of R2 (n=2). The data set is classed as functional, cell-based. Conditions: Homo sapiens.
Data set [37] has as its system R1. Briefly: Inhibition of growth of R1 (n=2). Conditions: Homo sapiens.
Substrate in data set [38]: Nc1nc(N)c2nc(CNc3ccc(C(=O)N[C@@H](CCC(=O)O)C(=O)O)cc3)cnc2n1
Briefly: folyl-poly-glutamate synthetase activity measured as Vmax; rel means relative.

Substrate in data set [39]: Nc1nc(N)c2nc(CNc3ccc(C(=O)N[C@@H](CCC(=O)O)C(=O)O)cc3)cnc2n1
Briefly: (§1) folyl-poly-glutamate synthetase activity measured as Km.

Substrate in data set [40]: CCC(Cc1coc2nc(N)cc(N)c12)c1ccc(C(=O)NC(CCC(=O)O)C(=O)O)cc1
Described as §1.

Substrate in data set [41]: CCC(Cc1coc2nc(N)cc(N)c12)c1ccc(C(=O)NC(CCC(=O)O)C(=O)O)cc1
Briefly: folyl-poly-glutamate synthetase activity measured as Vmax.

Sequence of Thymidylate synthase (Escherichia coli, UniProt C3SWJ7) (C3SWJ7 whole entry): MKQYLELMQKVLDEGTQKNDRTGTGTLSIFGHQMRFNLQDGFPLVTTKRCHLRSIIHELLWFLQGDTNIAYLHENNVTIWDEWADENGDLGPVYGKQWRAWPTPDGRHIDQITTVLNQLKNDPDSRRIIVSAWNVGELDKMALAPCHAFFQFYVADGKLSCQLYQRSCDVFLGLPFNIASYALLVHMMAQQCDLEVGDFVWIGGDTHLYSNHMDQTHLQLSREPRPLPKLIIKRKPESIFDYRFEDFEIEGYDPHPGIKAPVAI
Sequence of Thymidylate synthase (Homo sapiens, UniProt P04818) (P04818 whole entry): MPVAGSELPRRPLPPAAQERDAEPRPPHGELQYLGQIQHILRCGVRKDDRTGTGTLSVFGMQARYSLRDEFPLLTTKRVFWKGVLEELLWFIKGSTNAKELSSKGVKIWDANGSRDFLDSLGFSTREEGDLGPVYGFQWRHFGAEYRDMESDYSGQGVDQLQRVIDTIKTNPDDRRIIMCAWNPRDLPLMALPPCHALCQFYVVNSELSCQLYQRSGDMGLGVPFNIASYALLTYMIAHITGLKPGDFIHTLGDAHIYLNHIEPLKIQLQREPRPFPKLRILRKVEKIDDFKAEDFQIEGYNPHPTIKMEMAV

The GI50 is the concentration at which growth is held to half of that of the control. The term EC50 denotes the midpoint of the concentration-response curve. Read a high EC50 as a need for much substance. For orientation: IC50 means the midpoint of a concentration-inhibition curve. `CCC(Cc1coc2nc(N)cc(N)c12)c1ccc(C(=O)NC(CCC(=O)O)C(=O)O)cc1` (configuration not stated): the GI50 in [1] was 13.8 nM; in [2], under 10 nM; in data set [3], under 10 nM; in data set [4] it was under 10 nM; in [6] it was under 10 nM; in data set [7], under 10 nM. Besides, the GI50 in data set [8], in data set [10], in data set [11], in data set [13], in data set [14] and in [15] was under 10 nM throughout. Moreover, the GI50 in data set [16] was under 10 nM; in data set [17], under 10 nM; in [19] it was 81.8 nM; in data set [20] it was under 10 nM; in data set [23] it was 23.7 nM; in [24] it was 23.9 nM. Besides, the GI50 in data set [25] was 23.2 nM; in data set [26] it was 340 nM; in data set [27], under 10 nM; in data set [29], under 10 nM; in [30] it was under 10 nM; in data set [32] it was under 10 nM. In addition, the GI50 in data set [33] and in data set [35] was under 10 nM in each case. In addition, the EC50 in data set [5] came out at 35.5 nM; in [22], 50 nM; in data set [28], 2100 nM; in data set [31], 890 nM. In addition, the IC50 in data set [9] turned out to be 440 nM; in [12] it was 220000 nM; in [18], 1100 nM; in data set [21], 220000 nM; in [34] it was 220 nM.
For the molecule `CN(Cc1cnc2nc(N)nc(N)c2n1)c1ccc(C(=O)N[C@@H](CCC(=O)O)C(=O)O)cc1` [METHOTREXATE], the EC50 in [22] came out at 15 nM; in [36] it was 2600 nM; in data set [37], 1050 nM.

B1: Folylpolyglutamate synthase, mitochondrial (Homo sapiens), Q05932 (protein)
chain: MSRARSHLRAALFLAAASARGITTQVAARRGLSAWPVPQEPSMEYQDAVRMLNTLQTNAGYLEQVKRQRGDPQTQLEAMELYLARSGLQVEDLDRLNIIHVTGTKGKGSTCAFTECILRSYGLKTGFFSSPHLVQVRERIRINGQPISPELFTKYFWRLYHRLEETKDGSCVSMPPYFRFLTLMAFHVFLQEKVDLAVVEVGIGGAYDCTNIIRKPVVCGVSSLGIDHTSLLGDTVEKIAWQKGGIFKQGVPAFTVLQPEGPLAVLRDRAQQISCPLYLCPMLEALEEGGPPLTLGLEGEHQRSNAALALQLAHCWLQRQDRHGAGEPKASRPGLLWQLPLAPVFQPTSHMRLGLRNTEWPGRTQVLRRGPLTWYLDGAHTASSAQACVRWFRQALQGRERPSGGPEVRVLLFNATGDRDPAALLKLLQPCQFDYAVFCPNLTEVSSTGNADQQNFTVTLDQVLLRCLEHQQHWNHLDEEQASPDLWSAPSPEPGGSASLLLAPHPPHTCSASSLVFSCISHALQWISQGRDPIFQPPSPPKGLLTHPVAHSGASILREAAAIHVLVTGSLHLVGGVLKLLEPALSQ
By Km is commonly meant the substrate concentration at which the rate is half of its maximum. As to B1, the Vmax in [38] is 1 rel; in data set [41] it was 0.37 rel. In addition, the Km in data set [39] was found to be 3.2 µM; in data set [40], 1.1 µM.

The values above are taken from ChEMBL document CHEMBL1135938, “Synthesis of N-[4-[1-ethyl-2-(2,4-diaminofuro[2,3-d]pyrimidin-5-yl)ethyl]benzoyl]-L-glutamic acid as an antifolate” (J Med Chem, 2002).
